Measured values published in patent US20020143062A1, “Method to incorporate N-(4-hydroxyphenyl) retinamide in liposomes” (Board of Regents, The University of Texas System, priority 2000, published 2002).
Read-outs that look alike come from different tables or passages of the source.

Tests used:
[1] = Incorporation efficiency of 4-HPR into liposomes (OD345 after/before separation); assay type: physicochemical
Method: The mixture was frozen in acetone-dry ice bath, and then dried by lyophilzer. It was stored as a powder and resuspended with saline before use.
To determine the incorporation efficiency of 4-HPR into liposomes, liposomal 4-HPR powder was resuspended in saline and any free, unincorporated free 4-HPR was separated by centrifugation at 30,000× g for 1 hour. Liposomal 4-HPR was collected as a pellet and washed three times with saline. 4-HPR concentration was determined by absorbance at 345 nm. To remove the interference by liposomal turbidity, absorbance was measured after liposomal 4-HPR before and after separation was diluted with 1:1 mixture of dimethylsulfoxide and water. The incorporation efficiency was calculated by the following equation:
Incorporation efficiency=OD345 (after separation)/OD345 (before separation)×100%

BT-474 cells = assay: Growth and viability, Celltiter 96 Aqueous (MTS) cell proliferation assay; assay type: cell-based; conditions: Homo sapiens, BT-474, 72 h, 3 days, % of untreated cells, read-out: Growth and viability (%) after treatment
Method: (§1) Breast cancer cell lines were plated in 96 well plates in DMEM/F12 medium supplemented with 5% fetal calf serum and incubated with different concentrations of liposomal 4-HPR and free 4-HPR, respectively. At the end of incubation, the growth of cells was determined by the Celltiter 96 Aqueous nonradioactive cell proliferation assay (Promega Corp., Madison, Wis.) according to the manufacturer's protocol. Growth and viability of cells were determined by MTS assay after treatment with 4-HPR for 3 days (BT-474) and 4 days (MCF7). Growth of treated cells was compared with that of untreated cells cultured under the same conditions, and was expressed as % of untreated cells.

MCF-7 cells = assay: as above; assay type: cell-based; conditions: Homo sapiens, MCF7, 96 h, 4 days, % of untreated cells, read-out: Growth and viability (%) after treatment
Method: as §1

ER-positive MCF-7 cells [2] = assay: NO production, nitrite assay (Tables 5 and 7); assay type: cell-based
From the text: (§2) Nitric oxide (NO), an important biological second messenger, is known to induce growth inhibition and apoptosis in cells. Nitric oxide (NO) is biosynthesized by isoenzymes called nitric oxide synthases. One such isoenzyme, inducible NOS (iNOS), is present only after cytokine induction, such as interferon-γ (IFN-γ). […] Here, the ability of liposomal 4-HPR and IFN-γ to induce NO production and growth inhibition in breast cancer positive (Table 5) and breast cancer negative (Table 6) cells is examined by nitrite assays and growth inhibition assays, as known to the skilled artisan.
(§3) It is also known to those skilled in the art that nitric oxide (NO) is a biologic mediator derived from the amino acid L-arginine. A family of enzymes, known as nitric oxide synthase (NOS), act upon L-arginine to oxidize one of the guanidino nitrogens to nitric oxide while citrulline is formed from the remainder of the L-arginine molecule.
(§4) Liposomal 4-HPR in combination with cyclosporin A, increased iNOS production of NO in breast cancer cells (Table 3-5). […] Furthermore, an increase in the production of NO in these cells was not indicated with other retinoids such as CD437 and ATRA.

ER-positive MCF-7 cells [3] = assay: Growth inhibition, cell count (Table 5); assay type: cell-based; conditions: 4HPR 1 μM alone; 5 days
From the text: as §2

ER-positive MCF-7 cells [4] = assay: NO production, nitrite assay (Table 6); assay type: cell-based; conditions: 4HPR 1 μM alone, 5 days
From the text: as §2, §3

ER-positive MCF-7 cells [5] = assay: Growth inhibition, cell count (Table 6); assay type: cell-based; conditions: 4HPR 1 μM alone, 5 days
From the text: Nitric oxide (NO), an important biological second messenger, is known to induce growth inhibition and apoptosis in cells. Nitric oxide (NO) is biosynthesized by isoenzymes called nitric oxide synthases. […]

[6] = test system: ER-negative MDA-MB-231 cells; assay: NO production, nitrite (Table 8); assay type: cell-based; conditions: alone or with cyclosporin A 4 μg/ml as labelled, 3 days
From the text: as §4

MCF-7/WT = assay: Cellular proliferation assay, IC50 of retinoids with/without cyclosporin A; assay type: cell-based; conditions: for IC50: Homo sapiens
MCF-7/ADR = assay: as above; assay type: cell-based; conditions: for IC50: Homo sapiens, NCI/ADR-RES
BT-474 [7] = assay: as above; assay type: cell-based; conditions: for IC50: Homo sapiens
MDA-MB-453 [8] = assay: as above; assay type: cell-based; conditions: for IC50: Homo sapiens
MDA-MB-231 = assay: as above; assay type: cell-based; conditions: for IC50: Homo sapiens
BT-474 [9] = assay: NO production, nitrite (Table 10); assay type: cell-based; conditions: Herceptin − or + as labelled
From the text: (§5) Overexpression/amplification of the Her-2/neu oncogene has been associated with poor prognosis for breast cancer.

MDA-MB-453 [10] = assay: NO production, nitrite (Table 10); assay type: cell-based; conditions: Herceptin − or + as labelled
From the text: as §5

SK-Br-3 = assay: NO production, nitrite (Table 10); assay type: cell-based; conditions: Herceptin − or + as labelled
From the text: as §5

[11] = 100 μM
Method: The shelf stability of liposomal 4-HPR with free 4-HPR was compared. Liposomal 4-HPR and free 4-HPR were diluted with 0.9% normal saline at 100 μM concentration, and incubated at room temperature under subdued light. At various time points, absorbance at 345 nm was measured as a parameter of 4-HPR stability. All data are expressed as % of absorbance at time zero, which is considered as 100%.

[12] = cited from earlier work
[13] = without cyclosporin A, read-out: IC50 Without CsA
[14] = cotreatment with CsA 2 μg/ml, read-out: IC50 With CsA

incorporation efficiency ([1]; by optimizing ratio of 4-HPR to lipid mixture and ratio of DMPC to soybean oil): up to 96%
Incorporation efficiency (%) ([1]; composition column 1 of 7: 4-HPR:Lipid (w/w) 1:17, DMPC:soybean oil 1:0, water in tertiary butyl alcohol 0): 60.0%
Incorporation efficiency (%) ([1]; composition column 2 of 7: 4-HPR:Lipid 1:17, DMPC:soybean oil 1:0, water in tertiary butyl alcohol 1): 81.5%
Incorporation efficiency (%) ([1]; composition column 3 of 7: water in tertiary butyl alcohol 1, lipid ratios not resolvable (header spans lost), DMPC:soybean oil 9:1): 87.5%
Incorporation efficiency (%) ([1]; composition column 4 of 7: water in tertiary butyl alcohol 10, lipid ratios not resolvable (header spans lost)): 92.8%
Incorporation efficiency (%) ([1]; composition column 5 of 7: water in tertiary butyl alcohol 1, lipid ratios not resolvable (header spans lost), DMPC:soybean oil 8:2): 77.5%
Incorporation efficiency (%) ([1]; composition column 6 of 7: 4-HPR:Lipid 1:5 (likely), DMPC:soybean oil 9:1, water in tertiary butyl alcohol 10): 88.3%
Incorporation efficiency (%) ([1]; composition column 7 of 7: 4-HPR:Lipid 1:15, DMPC:soybean oil 9:1, water in tertiary butyl alcohol 10): 96.4%
-Fold ↑ (IC50 without CsA / with CsA) (MCF-7/WT; CsA 2 μg/ml): 3.11 -Fold
IC50 (MCF-7/WT; MCF7, cotreatment with CsA 2 μg/ml, read-out: IC50 With CsA): 1210 nM
IC50 (MCF-7/WT; MCF7, without cyclosporin A, read-out: IC50 Without CsA): 3760 nM
-Fold ↑ (IC50 without CsA / with CsA) (MCF-7/ADR; CsA 4 μg/ml): 2.47 -Fold
IC50 (MCF-7/ADR; cotreatment with CsA 4 μg/ml, read-out: IC50 With CsA): 2.7 µM
IC50 (MCF-7/ADR; [13]): 6.66 µM
-Fold ↑ (IC50 without CsA / with CsA) (BT-474 [7]; CsA 2 μg/ml): 1.81 -Fold
IC50 (BT-474 [7]; [14]): 1990 nM
IC50 (BT-474 [7]; [13]): 3610 nM
-Fold ↑ (IC50 without CsA / with CsA) (MDA-MB-453 [8]; CsA 2 μg/ml): 3.26 -Fold
IC50 (MDA-MB-453 [8]; [14]): 1.9 µM
IC50 (MDA-MB-453 [8]; [13]): 6.2 µM
-Fold ↑ (IC50 without CsA / with CsA) (MDA-MB-231; CsA 2 μg/ml): 6.37 -Fold
IC50 (MDA-MB-231; [14]): 1.23 µM
IC50 (MDA-MB-231; [13]): 7.84 µM
% remaining (absorbance at 345 nm as % of time zero) ([11]; 0 h): 100%
% remaining (absorbance at 345 nm as % of time zero) ([11]; 24 h): 85%
% remaining (absorbance at 345 nm as % of time zero) ([11]; 48 h): 84%
% remaining (absorbance at 345 nm as % of time zero) ([11]; 72 h): 71%
% remaining (absorbance at 345 nm as % of time zero) ([11]; 96 h): 61%
% remaining (absorbance at 345 nm as % of time zero) ([11]; 120 h): 51%
% remaining (absorbance at 345 nm as % of time zero) ([11]; 168 h): 32%
Structure (SMILES): CC1=C(/C=C/C(C)=C/C=C/C(C)=C/C(=O)Nc2ccc(O)cc2)C(C)(C)CCC1 [4-HPR, N-(4-hydroxyphenyl) retinamide]
viability at 0.1 µM (BT-474 cells; 0.1 μM 4-HPR): 100 ± 13.4%
viability at 0.9 µM (BT-474 cells; 0.9 μM 4-HPR): 109 ± 4.1%
viability at […] (BT-474 cells; 1.5 μM 4-HPR): 99.4 ± 12.1%
viability at 2.3 µM (BT-474 cells; 2.3 μM 4-HPR): 76.9 ± 5.3%
viability at 3.8 µM (BT-474 cells; 3.8 μM 4-HPR): 52.6 ± 3.7%
viability at 9 µM (BT-474 cells; 9.0 μM 4-HPR): 17.1 ± 2.8%
viability at 0.1 µM (MCF-7 cells; 0.1 μM 4-HPR): 106 ± 7.8%
viability at 0.9 µM (MCF-7 cells; 0.9 μM 4-HPR): 77.5 ± 5.8%
viability at […] (MCF-7 cells; 1.5 μM 4-HPR): 43.8 ± 5.7%
viability at 1.8 µM (MCF-7 cells; 1.8 μM 4-HPR): 33.6 ± 2%
viability at 3.6 µM (MCF-7 cells; 3.6 μM 4-HPR): 17.8 ± 1.5%
Nitrite (NO production) (ER-positive MCF-7 cells [2]; 4HPR 1 μM alone, 5 days, text: liposomal 4-HPR): 72.6 ± 1.7 μM Nitrite /1 × 10^6 cells
Nitrite (NO production) (ER-positive MCF-7 cells [2]; 4HPR 1.0 μM, alone or with cyclosporin A 4 μg/ml as labelled, 3 days): 12.5 μM Nitrite /1 × 10^6 cells
Nitrite (NO production) (ER-positive MCF-7 cells [2]; 4HPR 2.0 μM, alone or with cyclosporin A 4 μg/ml as labelled, 3 days): 33.8 μM Nitrite /1 × 10^6 cells
Cell count (ER-positive MCF-7 cells [3]): 20 × 10^4
Nitrite (NO production) (ER-positive MCF-7 cells [4]): 36.9 ± 5.8 μM Nitrite /1 × 10^6 cells
Cell count (ER-positive MCF-7 cells [5]): 34 × 10^4
Nitrite (NO production) ([6]; 4HPR 2.5 μM): 22.8 μM Nitrite /1 × 10^6 cells
Nitrite (NO production) ([6]; 4HPR 6.0 μM): 26.7 μM Nitrite /1 × 10^6 cells
Nitrite (NO production) (BT-474 [9]; 4HPR 1 μM): 45.8 ± 0. μM Nitrite /1 × 10^6 cells
Nitrite (NO production) (BT-474 [9]; 4HPR 2.5 μM): 146.9 ± 2.8 μM Nitrite /1 × 10^6 cells
Nitrite (NO production) (MDA-MB-453 [10]; 4HPR 1 μM): 30.9 ± 1.5 μM Nitrite /1 × 10^6 cells
Nitrite (NO production) (MDA-MB-453 [10]; 4HPR 2.5 μM): 68.1 ± 3.4 μM Nitrite /1 × 10^6 cells
Nitrite (NO production) (SK-Br-3; 4HPR 1 μM): 34.9 ± 1.2 μM Nitrite /1 × 10^6 cells
Nitrite (NO production) (SK-Br-3; 4HPR 2.5 μM): 75.2 ± 5.1 μM Nitrite /1 × 10^6 cells
solubility in water [12]: poorly soluble in water
